Results reported in patent US20230136600A1, “Method and device for screening antigen epitope polypeptide” (priority 2020, published 2023).

Test system: Balb/c mice
Experiment: Polypeptide chip-based vaccine immunogenicity scoring system
Type: in vivo
Set-up: key to A2: whether the 95 percentile of the last sampling is increased compared with the end point: Y = rise; N = no rise
Conditions: for A: 95 percentile grouping number score / B: Mouse performance score: total score = 5
[1] = Embodiment III, polypeptide-KLH
[2] = Embodiment III, polypeptide-KLH, Mix1-10
[3] = Embodiment III, polypeptide-KLH, value of the whole mix
[4] = adjuvant AddaVax, 7 peptides co-immunized in mice
[5] = adjuvant Adju-Phos, 7 peptides co-immunized in mice
[6] = adjuvant Alhydrogel, 7 peptides co-immunized in mice
[7] = adjuvant Imjet Alumn, 7 peptides co-immunized in mice
[8] = adjuvant MA103A, 7 peptides co-immunized in mice
[9] = adjuvant MA103B, 7 peptides co-immunized in mice

Sequence: SVYAWNRKR (SARS-CoV-2) [SEQ ID NO:3]
- A2: whether the 95 percentile of the last sampling is increased compared with the end point (Embodiment II, Combination 1): N
- B1: D 0-D 14 95 percentile rise in the number of mice (Embodiment II, Combination 1): 5
- B2: D 0-D 21 95 percentile rise in the number of mice (Embodiment II, Combination 1): 5
- B3: D 14-D 21 95 percentile rise in the number of mice (Embodiment II, Combination 1): 1
- B4: D 21-D 28 95 percentile rise in the number of mice (Embodiment II, Combination 1): 2
- Total single peptide (Embodiment II, Combination 1, A*3 + B*2 + C*1): 10.7
- A: 95 percentile grouping number score (Embodiment II, Combination 1): 1
- B: Mouse performance score (Embodiment II, Combination 1): 3.6
- A1: difference between a highest median and a D 0 median (95 percentile) (Embodiment II, mice immunized with Combination 1): 0.05
- B1: D 0-D 14 95 percentile rise in the number of mice [1]: 3
- B2: D 0-D 21 95 percentile rise in the number of mice [1]: 3
- B3: D 14-D 21 95 percentile rise in the number of mice [1]: 2
- B4: D 21-D 28 95 percentile rise in the number of mice [1]: 1
- A1: difference between a highest median and a D 0 median (95 percentile) [2]: 0.13
- A2: whether the 95 percentile of the last sampling is increased compared with the end point [2]: N
- Total single peptide (Embodiment III, polypeptide-KLH, A*3 + B*2 + C*1): 18.7
- A: 95 percentile grouping number score [1]: 4.5
- B: Mouse performance score [1]: 2.1
- C1: #A timing-sequence response peptide fragment set [3]: 823
- C2: #B vaccine specificity peptide fragment set [3]: 398
- C3: Intersection of A and B [3]: 7
- C4: Percentage of the intersection in set B [3]: 1.759
- C: Timing-sequence response and specificity score [3]: 1
- 1) 95 percentile grouping number A [4]: 4
- 1) 95 percentile grouping number A1 [4]: 0.05
- 2) Mouse performance B [4]: 3.5
- 2) Mouse performance B1 [4]: 3
- 2) Mouse performance B2 [4]: 5
- 2) Mouse performance B3 [4]: 4
- 3) Timing-sequence response and specificity C [4]: 0
- 3) Timing-sequence response and specificity C1 [4]: 237
- 3) Timing-sequence response and specificity C2 [4]: 1244
- 3) Timing-sequence response and specificity C3 [4]: 0
- 3) Timing-sequence response and specificity C4 [4]: 0.000
- Total single peptide [4]: 19
- 1) 95 percentile grouping number A [5]: 3.5
- 1) 95 percentile grouping number A1 [5]: 0.05
- 2) Mouse performance B [5]: 3
- 2) Mouse performance B1 [5]: 4
- 2) Mouse performance B2 [5]: 5
- 2) Mouse performance B3 [5]: 2
- 3) Timing-sequence response and specificity C [5]: 0
- 3) Timing-sequence response and specificity C1 [5]: 203
- 3) Timing-sequence response and specificity C2 [5]: 1244
- 3) Timing-sequence response and specificity C3 [5]: 0
- 3) Timing-sequence response and specificity C4 [5]: 0.000
- Total single peptide [5]: 16.5
- 1) 95 percentile grouping number A [6]: 1
- 1) 95 percentile grouping number A1 [6]: 0.012
- 2) Mouse performance B [6]: 0.8
- 2) Mouse performance B1 [6]: 2
- 2) Mouse performance B2 [6]: 1
- 2) Mouse performance B3 [6]: 0
- 3) Timing-sequence response and specificity C [6]: 1
- 3) Timing-sequence response and specificity C1 [6]: 123
- 3) Timing-sequence response and specificity C2 [6]: 1244
- 3) Timing-sequence response and specificity C3 [6]: 2
- 3) Timing-sequence response and specificity C4 [6]: 0.161
- Total single peptide [6]: 5.1
- 1) 95 percentile grouping number A [7]: 5
- 1) 95 percentile grouping number A1 [7]: 0.09
- 2) Mouse performance B [7]: 2.7
- 2) Mouse performance B1 [7]: 5
- 2) Mouse performance B2 [7]: 4
- 2) Mouse performance B3 [7]: 1
- 3) Timing-sequence response and specificity C [7]: 1
- 3) Timing-sequence response and specificity C1 [7]: 100
- 3) Timing-sequence response and specificity C2 [7]: 1244
- 3) Timing-sequence response and specificity C3 [7]: 3
- 3) Timing-sequence response and specificity C4 [7]: 0.241
- Total single peptide [7]: 20.9
- 1) 95 percentile grouping number A [8]: 5
- 1) 95 percentile grouping number A1 [8]: 0.08
- 2) Mouse performance B [8]: 2.9
- 2) Mouse performance B1 [8]: 5
- 2) Mouse performance B2 [8]: 5
- 2) Mouse performance B3 [8]: 1
- 3) Timing-sequence response and specificity C [8]: 1
- 3) Timing-sequence response and specificity C1 [8]: 260
- 3) Timing-sequence response and specificity C2 [8]: 1244
- 3) Timing-sequence response and specificity C3 [8]: 3
- 3) Timing-sequence response and specificity C4 [8]: 0.241
- Total single peptide [8]: 21.3
- 1) 95 percentile grouping number A [9]: 3.5
- 1) 95 percentile grouping number A1 [9]: 0.05
- 2) Mouse performance B [9]: 2.9
- 2) Mouse performance B1 [9]: 5
- 2) Mouse performance B2 [9]: 5
- 2) Mouse performance B3 [9]: 1
- 3) Timing-sequence response and specificity C [9]: 0
- 3) Timing-sequence response and specificity C1 [9]: 153
- 3) Timing-sequence response and specificity C2 [9]: 1244
- 3) Timing-sequence response and specificity C3 [9]: 0
- 3) Timing-sequence response and specificity C4 [9]: 0.000
- Total single peptide [9]: 16.3
